# Source: patent US12077503B2, “Substituted cyclic amides and their use as herbicides” (FMC CORPORATION, priority 2015, dated 2024)
# What was measured:
# Format in all cases: in vivo
# [1] = test system: ragweed (common ragweed, Ambrosia elatior); experiment: Test A preemergence; conditions: Ambrosia artemisiifolia, pre-emergence, 240 h, Preemergence
# Procedure, shortened: (§1)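 Preemergence directed soil spray on seeded pots, or postemergence application to plants 2–10 cm, one- to two-leaf. Solvent mixture non-phytotoxic, with surfactant. Scored ~10 d later, visually, 0–100 vs untreated.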
# [2] = test system: pigweed (Amaranthus retroflexus); experiment: Test A preemergence; conditions: Amaranthus retroflexus, pre-emergence, 240 h, Preemergence
# [3] = test system: barnyardgrass (Echinochloa crus-galli); experiment: Test A preemergence; conditions: Echinochloa crus-galli, pre-emergence, 240 h, Preemergence
# Procedure, shortened: as §1
# Kochia (Kochia scoparia) [4] = experiment: Test A preemergence; conditions: Bassia scoparia, pre-emergence, 240 h, Preemergence
# Procedure, shortened: as §1
# [5] = test system: ryegrass, Italian (Italian ryegrass, Lolium multiflorum); experiment: Test A preemergence; conditions: Lolium multiflorum, pre-emergence, 240 h, Preemergence
# Procedure, shortened: as §1
# [6] = test system: giant foxtail (Setaria faberii); experiment: Test A preemergence; conditions: Setaria faberi, pre-emergence, 240 h, Preemergence
# Procedure, shortened: as §1
# [7] = test system: ragweed (common ragweed, Ambrosia elatior); experiment: Test A postemergence; conditions: Ambrosia artemisiifolia, post-emergence, 240 h, Postemergence, read-out: Ragweed plant response rating (0 to 100 scale)
# Procedure, shortened: as §1
# [8] = test system: pigweed (Amaranthus retroflexus); experiment: Test A postemergence; conditions: Amaranthus retroflexus, post-emergence, 240 h, Postemergence, read-out: Pigweed plant response rating (0 to 100 scale)
# Procedure, shortened: as §1
# corn (Zea mays) = experiment: Test A postemergence; conditions: Zea mays, post-emergence, 240 h, Postemergence, read-out: Corn plant response rating (0 to 100 scale)
# Procedure, shortened: as §1
# [9] = test system: barnyardgrass (Echinochloa crus-galli); experiment: Test A postemergence; conditions: Echinochloa crus-galli, post-emergence, 240 h, Postemergence
# Procedure, shortened: as §1
# [10] = test system: wheat (Triticum aestivum); experiment: Test A postemergence; conditions: Triticum aestivum, post-emergence, 240 h, Postemergence, read-out: Wheat plant response rating (0 to 100 scale)
# Procedure, shortened: as §1
# Kochia (Kochia scoparia) [11] = experiment: Test A postemergence; conditions: Bassia scoparia, post-emergence, 240 h, Postemergence, read-out: Kochia plant response rating (0 to 100 scale)
# Procedure, shortened: as §1
# [12] = test system: blackgrass (Alopecurus myosuroides); experiment: Test A postemergence; conditions: Alopecurus myosuroides, post-emergence, 240 h, Postemergence, read-out: Blackgrass plant response rating (0 to 100 scale)
# Procedure, shortened: as §1
# [13] = test system: ryegrass, Italian (Italian ryegrass, Lolium multiflorum); experiment: Test A postemergence; conditions: Lolium multiflorum, post-emergence, 240 h, Postemergence, read-out: Ryegrass, Italian plant response rating (0 to 100 scale)
# Procedure, shortened: as §1
# [14] = test system: giant foxtail (Setaria faberii); experiment: Test A postemergence; conditions: Setaria faberi, post-emergence, 240 h, Postemergence, read-out: Foxtail, Giant plant response rating (0 to 100 scale)
# Procedure, shortened: as §1
# [15] = test system: Galium (catchweed bedstraw, Galium aparine); experiment: Test A postemergence; conditions: Galium, post-emergence, 240 h, Postemergence, read-out: Galium plant response rating (0 to 100 scale)
# Procedure, shortened: as §1
# [16] = test system: barnyardgrass (Echinochloa crus-galli); experiment: Test B flooded paddy test; conditions: Echinochloa crus-galli, 360 h, Flood, 250 g ai/ha; visually evaluated after 13 to 15 d; read-out: Plant response rating, Barnyardgrass (0 to 100 scale where 0 is no effect and 100 is complete control)
# Procedure, shortened: (§2)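 Flooding to 3 cm over soil accompanied treatment, which consisted of adding compound to the standing water around 2-leaf plants; depth was then maintained. Visual assessment versus controls followed at 13 to 15 d (scale 0–100, 0 meaning no effect).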
# [17] = test system: ducksalad (Heteranthera limosa); experiment: Test B flooded paddy test; conditions: Heteranthera limosa, 360 h, Flood, 250 g ai/ha; visually evaluated after 13 to 15 d; read-out: Plant response rating, Ducksalad (0 to 100 scale where 0 is no effect and 100 is complete control)
# Procedure, shortened: as §2
# rice (Oryra sativa) = experiment: Test B flooded paddy test; conditions: Oryza sativa, 360 h, Flood, 250 g ai/ha; visually evaluated after 13 to 15 d; read-out: Plant response rating, Rice (0 to 100 scale where 0 is no effect and 100 is complete control)
# Procedure, shortened: as §2
# [18] = test system: sedge, umbrella (small-flower umbrella sedge, Cyperus difformis); experiment: Test B flooded paddy test; conditions: Cyperus difformis, 360 h, Flood, 250 g ai/ha; visually evaluated after 13 to 15 d; read-out: Plant response rating, Sedge, Umbrella (0 to 100 scale where 0 is no effect and 100 is complete control)
# Procedure, shortened: as §2
# [19] = 125 g ai/ha, visual rating about 10 d after treatment
# [20] = 31 g ai/ha, 0 is no effect, 100 is complete control
smiles,measurement,setting,value
COc1c([C@H]2CN(C)C(=O)[C@@H]2C(=O)Nc2ccccc2F)cccc1C(F)(F)F [Compound 1338],pest or weed control at 31 g/ha,"[1]; 31 g ai/ha, 0 to 100 scale where 0 is no effect and 100 is complete control, read-out: Ragweed plant response rating",0%
same,pest or weed control at 125 g/ha,"[1]; 125 g ai/ha, 0 to 100 scale (0 no effect, 100 complete control), read-out: Plant response rating, Ragweed",0%
same,pest or weed control at 31 g/ha,"[2]; 31 g ai/ha, 0 to 100 scale where 0 is no effect and 100 is complete control, read-out: Pigweed plant response rating",0%
same,pest or weed control at 125 g/ha,"[2]; 125 g ai/ha, 0 to 100 scale (0 no effect, 100 complete control), read-out: Plant response rating, Pigweed",0%
same,pest or weed control at 31 g/ha,"[3]; 31 g ai/ha, 0 to 100 scale where 0 is no effect and 100 is complete control, read-out: Barnyardgrass plant response rating",90%
same,pest or weed control at 125 g/ha,"[3]; 125 g ai/ha, 0 to 100 scale (0 no effect, 100 complete control), read-out: Plant response rating, Barnyardgrass",100%
same,pest or weed control at 31 g/ha,"Kochia (Kochia scoparia) [4]; 31 g ai/ha, 0 to 100 scale where 0 is no effect and 100 is complete control, read-out: Kochia plant response rating",0%
same,pest or weed control at 125 g/ha,"Kochia (Kochia scoparia) [4]; 125 g ai/ha, 0 to 100 scale (0 no effect, 100 complete control), read-out: Plant response rating, Kochia",0%
same,pest or weed control at 31 g/ha,"[5]; 31 g ai/ha, 0 to 100 scale where 0 is no effect and 100 is complete control, read-out: Ryegrass, Italian plant response rating",0%
same,pest or weed control at 125 g/ha,"[5]; 125 g ai/ha, 0 to 100 scale (0 no effect, 100 complete control), read-out: Plant response rating, Ryegrass, Italian",0%
same,pest or weed control at 31 g/ha,"[6]; 31 g ai/ha, 0 to 100 scale where 0 is no effect and 100 is complete control, read-out: Foxtail, Giant plant response rating",80%
same,pest or weed control at 125 g/ha,"[6]; 125 g ai/ha, 0 to 100 scale (0 no effect, 100 complete control), read-out: Plant response rating, Foxtail, Giant",90%
same,pest or weed control at 125 g/ha,[7]; [19],0%
same,pest or weed control at 31 g/ha,[7]; [20],0%
same,pest or weed control at 125 g/ha,[8]; [19],0%
same,pest or weed control at 31 g/ha,[8]; [20],0%
same,plant injury at 125 g/ha,corn (Zea mays); [19],0%
same,plant injury at 31 g/ha,corn (Zea mays); [20],0%
same,pest or weed control at 125 g/ha,"[9]; 125 g ai/ha, visual rating about 10 d after treatment, read-out: Barnyardgrass plant response rating (0 to 100 scale, 0 no effect, 100 complete control)",80%
same,pest or weed control at 31 g/ha,"[9]; 31 g ai/ha, 0 is no effect, 100 is complete control, read-out: Barnyardgrass plant response rating (0 to 100 scale)",70%
same,plant injury at 125 g/ha,[10]; [19],0%
same,plant injury at 31 g/ha,[10]; [20],0%
same,pest or weed control at 125 g/ha,Kochia (Kochia scoparia) [11]; [19],0%
same,pest or weed control at 31 g/ha,Kochia (Kochia scoparia) [11]; [20],0%
same,pest or weed control at 125 g/ha,[12]; [19],0%
same,pest or weed control at 31 g/ha,[12]; [20],0%
same,pest or weed control at 125 g/ha,[13]; [19],0%
same,pest or weed control at 31 g/ha,[13]; [20],0%
same,pest or weed control at 125 g/ha,[14]; [19],80%
same,pest or weed control at 31 g/ha,[14]; [20],50%
same,pest or weed control at 125 g/ha,[15]; [19],30%
same,pest or weed control at 31 g/ha,[15]; [20],0%
same,pest or weed control at 250 g/ha,[16],90%
same,pest or weed control at 250 g/ha,[17],100%
same,pest or weed control at 250 g/ha,rice (Oryra sativa),25%
same,pest or weed control at 250 g/ha,[18],0%
